Results: patent US11427861B2, “Methods for identifying and modulating co-occurant cellular phenotypes” (MASSACHUSETTS INSTITUTE OF TECHNOLOGY, priority 2016, dated 2022)

Tested on: dendritic cells
Experiment: Induction of the functional dendritic cell subset by immunomodulators
Assay type: cell-based, human
Details: dendritic cells of normal donors; TLR3 ligand as immunomodulator

With poly I:C as the substance, how does the “population of the functional subset of dendritic cells (CD64 and PD-L1 surface expression)” value read?
Its value is “induced a larger population of the functional subset of dendritic cells”.
